How the values were obtained:
Mus musculus = species: Mus musculus; experiment: Cytotoxicity against mouse RAW264.7 cells at <25 uM by MTT assay; type: toxicity, cell-based
[1] = Antiinflammatory activity against LPS-induced mouse RAW264.7 cells assessed as inhibition of NO production pretreated for 1 hr followed by LPS stimulation for 24 hrs by Griess assay; type: functional, cell-based

Row | Structure (SMILES) | Activity (Mus musculus) | IC50 [1] [µM]
1 | C=C1CC=C[C@@]2(C)C[C@@]3(O)OC(=O)C(C)=C3C[C@H]12 | Non-Toxic | > 25
2 | C=C1[C@H]2C[C@H]2[C@]2(C)C[C@@]3(O)OC(=O)C(C)=C3[C@H](OC(C)=O)[C@H]12 | Non-Toxic | 
3 | N=C(N)NN [PIMAGEDINE] |  | 18.4
4 | CO[C@@]1(C)[C@H]2C[C@H]2[C@]2(C)C[C@@H]3OC(=O)C(C)=C3C[C@@H]21 | Non-Toxic | 6.3
5 | CC1=C2C[C@@H]3[C@@](C)(O)[C@H]4C[C@H]4[C@]3(C)C[C@]2(O)OC1=O | Non-Toxic | 9.6
6 | Cc1coc2c1[C@H]1C=C(CC[C@@H]3O[C@@]3(C)C2)C(=O)O1 [PSEUDONEOLINDERANE] | Non-Toxic | > 25
7 | C=C1Cc2occ(C)c2C2C=C(CC[C@H]1O)C(=O)O2 (stereo not given in full) | Non-Toxic | 9
8 | C=C1[C@H]2CC3=C(C)C(=O)O[C@H]3C[C@]2(C)[C@H]2C[C@@H]12 | Non-Toxic | 15.4
9 | CC1=C2C[C@@H]3[C@@](C)(O)[C@H]4C[C@H]4[C@]3(C)C[C@@H]2OC1=O | Non-Toxic | 
10 | C=C1[C@H]2C[C@H]2[C@]2(C)C[C@@]3(O)OC(=O)C(C)=C3[C@H](OC)[C@H]12 | Non-Toxic | 21.6
11 | COC(=O)/C(C)=C1\C(=O)O[C@]2(C)[C@@H]3C[C@@H]3[C@@](C)(CO)[C@H]2[C@@H]1O | Non-Toxic | > 25
12 | C=C1[C@H]2C[C@H]2[C@]2(C)C[C@]3(O)OC(=O)C(C)=C3[C@H](OC(C)=O)[C@H]12 | Non-Toxic | 
13 | C=C1[C@H]2C[C@H]2[C@]2(C)C[C@H]3OC(=O)C(C)=C3[C@H](O)[C@H]12 | Non-Toxic | 12.3
14 | CC(=O)O[C@H]1C2=C(C)C(=O)O[C@@]2(O)C[C@@]2(C)[C@@H]3C[C@@H]3[C@](C)(O)[C@@H]12 | Non-Toxic | 12.8
15 | CC1=C2[C@@H]3OC(=O)[C@@]4(CC/C=C(\C)C[C@@]2(O)OC1=O)O[C@@H]34 | Non-Toxic | > 25
16 | CC1=C2[C@H](O)[C@@H]3[C@@](C)(O)[C@H]4C[C@H]4[C@]3(C)C[C@]2(O)OC1=O | Non-Toxic | 14.6
17 | CC1=C2C(=O)[C@@H]3[C@](C)(O)[C@H]4C[C@H]4[C@@]3(C)C[C@H]2OC1=O | Non-Toxic | 22.5
